Converted amounts (≈) assume the structure as drawn. Where a SMILES comes first, the peptide text is derived from it.
Legend:
[1] = system: P. aeruginosa cra3840 (PA 02); assay type: cell-based
Source text: (§1) The experimental scheme reported in Figure 6 helped to simplify and optimize the in vitro testing of the antibacterial activity of the different AMPs. The initial transparent microtiter plate for the determination of the minimum inhibitory concentration (MIC) by optical density (OD) measurement was conveniently used as a starting point not only for the alterative determination of the MIC by luminescence but also for the minimum bactericidal concentration (MBC) and for the minimum biofilm inhibitory concentration (MBIC), as explained below. For every test peptide, at least three independent experiments were performed on each bacterial strain per test condition (100% MHB and 20% MHB). The sole exception to this rule was when MIC values were on rare occasions found to be greater than 500 µg/mL. Under these circumstances, two consecutive experiments were performed to confirm the results. In this case, the antibacterial activity was considered insignificant and the third experiment was generally considered unnecessary.
(§2) The antibacterial properties of the test AMPs were assayed under two distinct conditions of bacterial culture: (i) with bacteria cultured in undiluted Mueller–Hinton II Broth (MHB II) and (ii) with bacteria cultured in diluted MHB II as earlier described in Campoccia et al.. Briefly, a few colonies of each bacterial strain, taken from overnight cultures on Mueller–Hinton Agar plates (MHA, PO50007A, ThermoScientific, Thermo Fisher Scientific, Segrate, Italy), were resuspended in Mueller–Hinton II Broth (MHB II, 24107, Liofilchem, Roseto degli Abruzzi, Italy), either undiluted or at a 20% dilution in deionized water. The concentration of bacteria was adjusted to approximately 10^8 CFU/mL, as estimated by optical density reading at 625 nm, using a Hewlett Packard G1103A spectrophotometer (Waldbronn, Germany). The bacterial suspension was further diluted 1:100 in 100% or 20% MHB II.
(§3) Serial 1:2 dilutions of all the test peptides were prepared in sterile deionized water starting from a stock solution of 1 mg/mL. Microtiter plates (96-Well CytoOne® Plate, CC7672-7596, Starlab S.r.l., Milano, Italy) were prepared by adding a volume of 100 µL of inoculum to 100 µL of treatment. Each AMP dilution was assayed in triplicate; each microplate included triplicate wells for the blank (100 µL of sterile distilled water and 100 µL of sterile MHB II), and 3 to 6 wells for reference control of 100% growth (100 µL of sterile deionized water and 100 µL of MHB II inoculated with the bacterium). Positive controls were performed in triplicate wells with 100 µL of a 10 mg/mL gentamicin solution (G1272, Sigma Aldrich, Milan, Italy) and with 100 µL of a solution containing 10,000 units/mL of penicillin and 10,000 µg/mL of streptomycin (penicillin–streptomycin, 15140-122, Life Technologies, Monza, Italy).
(§4) After a 1-day incubation at 37 °C, the MIC was determined by two distinct methods: (1) optical density measurement and (2) bioluminescence reading. In the first case, the optical density of the microtiter plates was read directly at a wavelength of 600 nm and the MIC was estimated from the curves obtained by plotting the OD measurements. For the bioluminescence reading, after gentle resuspension, 100 µL of each treated culture was transferred to a new 96-well non-treated plate (236105/237105, Life Technologies, Monza, Italy) and the metabolic activity was determined by the kit Bac-Titer Glo Microbial Cell Viability Assay (G8231, Promega Italia S.r.l, Milan, Italy). Optical density and bioluminescence were read by a Modulus II multifunction plate reader (Turner BioSystems, Sunnyvale, CA, USA) or, alternatively, by an Infinite M Plex (Tecan Group Ltd., Männedorf, Switzerland). As earlier described in [24], in the case of luminescence, the MIC was identified from the curves of growth inhibition as the first concentration leading to a 1-log reduction in bacterial growth (i.e., 90% growth inhibition). […]

[2] = system: P. aeruginosa cra4004 (PA 01); assay type: cell-based
Source text: as §1, §2, §3, §4

E. coli cra4038 (EC) = assay type: cell-based; details: cra4038 (EC)
Source text: as §1, §2, §3
(§5) The wells of the microplate, initially used for the determination of the MIC, were rinsed twice with 220 µL of phosphate-buffered solution (PBS) to remove loosely attached and planktonic bacteria. A total of 100 µL of fresh PBS and 100 µL of Bac-Titer Glo solution (G8231, Promega Italia S.r.l., Milan, Italy) were added to each well. After a 10 min incubation, a volume of 100 µL was transferred to a new microplate for luminescence determination as described above. As a general rule, the MBIC value was identified as the concentration at which a reduction of at least a log in the metabolic activity was observed.

[3] = system: E. faecalis cra4033 (EF 02); assay type: cell-based
Source text: as §1, §2, §3, §5

[4] = system: P. aeruginosa cra3840 (PA 02); assay type: cell-based; details: cra3840 (PA 02, 24 h)
Source text: as §1, §2, §3, §5

[5] = system: P. aeruginosa cra4004 (PA 01); assay type: cell-based; remark: listed apart in the source
Source text: as §1, §2, §3, §5

[6] = system: S. aureus cra2198 (SA 02); assay type: cell-based; details: cra2198 (SA 02, 24 h)
Source text: as §1, §2, §3, §5

[7] = system: S. aureus cra4030 (SA 01); assay type: cell-based
Source text: as §1, §2, §3, §5

[8] = system: S. epidermidis cra4029 (SE 02); assay type: cell-based; details: cra4029 (SE 02)
Source text: as §1, §2, §3, §5

[9] = system: osteoblast-like MG63 cells; assay: LDH cytotoxicity assay on osteoblast-like cells; assay type: cell-based, human; details: 1% Tween-20, Positive Control, 24 h, mean, SD ± 4.2%
Method: MG63 cells (ATCC, Rockville, MD, USA) were thawed from a frozen stock and cultured in DMEM (11885-084, Thermo Fisher Scientific, Segrate, Italy) supplemented with non-inactivated 10% fetal bovine serum (FBS, F7524, Sigma-Aldrich, Milan, Italy) and 100× Penicillin/Streptomycin solution (P/S, 10,000 units penicillin and 10 mg streptomycin/mL, P4333, Sigma-Aldrich, Milan, Italy), under standard culture conditions (i.e., at 37 °C, in a humidified atmosphere with 5% CO2). Cells were regularly subcultured 2–3 times a week by using TrypLE Select 1× (GIBCO, Thermo Fisher Scientific, Segrate, Italy).
A suspension of MG63 cells was prepared in complete DMEM at a concentration of 5 × 10^4 cells/mL. […]
Cytotoxicity was assessed by measuring the release of lactate dehydrogenase (LDH) from damaged cells by the LDH Cytotoxicity Assay (ab197004, Abcam, Cambridge, UK), strictly following the instructions of the manufacturer. […] After 10 min shaking, the plate was read in fluorescence (excitation: 535 nm; emission 587 nm) by an Infinite 200 PRO mod. M PLEX multifunction plate reader (Tecan Group Ltd., Männedorf, Switzerland). […]
Data in relative fluorescence units (RFU) from the investigation on KSL-W suppression of S. aureus cytotoxicity were processed as follows. […]

Row | MIC [1] | MIC [2] | Molecule | LR, Log10 reduction in bacterial metabolism for a given MBIC (E. coli cra4038 (EC)) | LR, Log10 reduction in bacterial metabolism for a given MBIC ([3]; cra4033 (EF 02)) | MBIC ([3]; cra4033 (EF 02, 24 h)) | MBIC [4] | LR, Log10 reduction in bacterial metabolism for a given MBIC [5] | MBIC [6] | LR, Log10 reduction in bacterial metabolism for a given MBIC ([7]; cra4030 (SA 01)) | MBIC ([7]; cra4030 (SA 01, 24 h)) | LR, Log10 reduction in bacterial metabolism for a given MBIC [8] | cytotoxicity (LDH, % of Lysate Control) [9]
1 | 3.91 µg/mL (≈ 3.13 µM) | 3.91 µg/mL (≈ 3.13 µM) | CC(C)[C@H](NC(=O)[C@H](CCCCN)NC(=O)[C@H](Cc1ccccc1)NC(=O)[C@@H](NC(=O)[C@@H](NC(=O)[C@H](CCCCN)NC(=O)[C@@H](N)CCCCN)C(C)C)C(C)C)C(=O)N[C@@H](CCCCN)C(=O)N[C@@H](Cc1ccccc1)C(=O)N[C@@H](CCCCN)C(=O)O [KSL] (H-KKVVFKVKFK-OH) | 3 LR | 2 LR | 250 µg/mL | 3.91 µg/mL | 3 LR | 31.25 µg/mL | 2 LR | 1.95 µg/mL | 2 LR | 
2 |  |  | Tween-20 |  |  |  |  |  |  |  |  |  | 50.3%
